# Source: PubChem BioAssay AID328 (DTP/NCI, 2004)
# Inconclusive results and toxic doses are left out.
# System: BDF1 mice, P388 leukemia ip, median survival T/C
# Test: NCI In Vivo Anticancer Drug Screen. Data for tumor model P388 Leukemia (intraperitoneal) in B6D2F1 (BDF1) mice
# Settings: endpoint: median survival time, higher = longer survival
# Procedure, shortened: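 Each value expresses how treatment altered survival: treated-mouse outcome over vehicle-mouse outcome, both groups bearing the transplanted tumour.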
# [1] = dose: 50.0 mg/kg/injection, schedule: Q01DX009 (ip), vehicle: saline with Tween-80
# [2] = dose: 100.0 mg/kg/injection, schedule: Q01DX009 (ip), vehicle: saline with Tween-80
# [3] = dose: 100.0 mg/kg/injection, schedule: Q01DX001 (ip), vehicle: saline with Tween-80
# [4] = dose: 200.0 mg/kg/injection, schedule: Q01DX001 (ip), vehicle: saline with Tween-80
# [5] = dose: 400.0 mg/kg/injection, schedule: Q01DX001 (ip), vehicle: saline with Tween-80
# [6] = dose: 12.5 mg/kg/injection, schedule: Q01DX009 (ip), vehicle: saline with Tween-80
# [7] = dose: 25.0 mg/kg/injection, schedule: Q01DX009 (ip), vehicle: saline with Tween-80
# [8] = dose: 200.0 mg/kg/injection, schedule: Q01DX009 (ip), vehicle: saline with Tween-80
smiles,measurement,setting,value
CC(C)c1oc(=O)cc2c1[C@@H](O)[C@H]1OC(=O)[C@@]3(C)[C@@H](O)[C@H]4O[C@H]4[C@@]2(C)[C@@H]13,T/C,"dose: 15.0 mg/kg/injection, schedule: Q04DX003 (ip), vehicle: saline with Tween-80",115 % of control
same,T/C,"dose: 30.0 mg/kg/injection, schedule: Q01DX001 (ip), vehicle: saline with Tween-80",104 % of control
same,T/C,"dose: 30.0 mg/kg/injection, schedule: Q04DX003 (ip), vehicle: saline with Tween-80",97 % of control
O=C1NN=C(c2ccc(Br)cc2)CS1,T/C,[1],100 % of control
same,T/C,[2],102 % of control
O=[N+]([O-])c1cccc2c([N+](=O)[O-])cccc12,T/C,"dose: 100.0 mg/kg/injection, schedule: Q01DX001 (ip), vehicle: saline sonified",95 % of control
same,T/C,"dose: 200.0 mg/kg/injection, schedule: Q01DX001 (ip), vehicle: saline sonified",100 % of control
same,T/C,"dose: 400.0 mg/kg/injection, schedule: Q01DX001 (ip), vehicle: saline sonified",115 % of control
CC(/C=N/N=C(N)N)=N\N=C(N)N.O=C([O-])C(=O)[O-].O=C([O-])C(=O)[O-].[Nb+5].[O-][O-].[O-][O-],T/C,"dose: 12.5 mg/kg/injection, schedule: Q01DX009 (ip), vehicle: saline",97 % of control
same,T/C,"dose: 50.0 mg/kg/injection, schedule: Q01DX009 (ip), vehicle: saline",90 % of control
CCN(C(=O)Nc1ccccc1Cl)c1ccccc1,T/C,[3],95 % of control
same,T/C,[4],100 % of control
same,T/C,[5],100 % of control
CSc1nc2[nH]cnc(=S)c2[nH]1,T/C,"dose: 6.25 mg/kg/injection, schedule: Q01DX009 (ip), vehicle: saline with Tween-80",104 % of control
same,T/C,[6],104 % of control
same,T/C,[7],100 % of control
N#CN=CN1CC=C(c2ccc(Cl)cc2)CC1,T/C,[1],98 % of control
same,T/C,[2],93 % of control
same,T/C,[8],94 % of control
COc1ccc2nc3c4ccccc4scc-3c2c1,T/C,"dose: 25.0 mg/kg/injection, schedule: Q04DX003 (ip), vehicle: Klucel (hydroxypropylcellulose) (HPC)",109 % of control
same,T/C,"dose: 50.0 mg/kg/injection, schedule: Q04DX003 (ip), vehicle: Klucel (hydroxypropylcellulose) (HPC)",109 % of control
same,T/C,"dose: 100.0 mg/kg/injection, schedule: Q04DX003 (ip), vehicle: Klucel (hydroxypropylcellulose) (HPC)",100 % of control
same,T/C,"dose: 148.5 mg/kg/injection, schedule: Q04DX003 (ip), vehicle: Klucel (hydroxypropylcellulose) (HPC)",109 % of control
same,T/C,"dose: 150.0 mg/kg/injection, schedule: Q04DX003 (ip), vehicle: Klucel (hydroxypropylcellulose) (HPC)",116 % of control
same,T/C,"dose: 225.0 mg/kg/injection, schedule: Q04DX003 (ip), vehicle: Klucel (hydroxypropylcellulose) (HPC)",100 % of control
same,T/C,"dose: 337.5 mg/kg/injection, schedule: Q04DX003 (ip), vehicle: Klucel (hydroxypropylcellulose) (HPC)",113 % of control
COC(=O)c1c2ccccc2cn1-c1ccccc1,T/C,[1],100 % of control
same,T/C,[2],109 % of control
same,T/C,[8],100 % of control
COC(=O)C1(C(=O)OC)C2CC(C)=C(C)CC21 (stereo not drawn),T/C,"dose: 150.0 mg/kg/injection, schedule: Q04DX003 (ip), vehicle: saline",95 % of control
same,T/C,"dose: 300.0 mg/kg/injection, schedule: Q04DX003 (ip), vehicle: saline",95 % of control
CC(Cc1ccc2ccccc2c1)C(=O)c1ccc2ccccc2c1 (stereo not drawn),T/C,[3],100 % of control
same,T/C,[4],100 % of control
same,T/C,[5],100 % of control
C[C@@H]1CC2=CC(=O)CC[C@@H]2[C@H]2CC[C@@]3(C)[C@@H](CC[C@]3(C)O)[C@@H]21,T/C,[2],104 % of control
same,T/C,"dose: 100.0 mg/kg/injection, schedule: Q04DX003 (ip), vehicle: saline with Tween-80",100 % of control
same,T/C,[8],90 % of control
CCCCOC(=O)c1ccc(OP(=O)(N(C)C)N(C)C)cc1,T/C,[1],100 % of control
same,T/C,[2],94 % of control
same,T/C,[8],87 % of control
O=C1C(Cl)=C(Nc2nccs2)C(=O)c2ccccc21,T/C,"dose: 50.0 mg/kg/injection, schedule: Q01DX005 (ip), vehicle: saline with Tween-80",102 % of control
same,T/C,"dose: 100.0 mg/kg/injection, schedule: Q01DX005 (ip), vehicle: saline with Tween-80",107 % of control
same,T/C,"dose: 200.0 mg/kg/injection, schedule: Q01DX005 (ip), vehicle: saline with Tween-80",118 % of control
NNC(=O)Cc1ccccc1,T/C,"dose: 25.0 mg/kg/injection, schedule: Q04DX003 (ip), vehicle: saline sonified",110 % of control
same,T/C,"dose: 50.0 mg/kg/injection, schedule: Q04DX003 (ip), vehicle: saline sonified",105 % of control
same,T/C,"dose: 100.0 mg/kg/injection, schedule: Q04DX003 (ip), vehicle: saline sonified",110 % of control
COC(=O)C[C@](O)(CCC(C)C)C(=O)O[C@@H]1C(OC)=C[C@]23CCCN2CCc2cc4c(cc2[C@H]13)OCO4,T/C,"dose: 0.06 mg/kg/injection, schedule: Q01DX010 (ip), vehicle: saline",118 % of control
same,T/C,"dose: 0.13 mg/kg/injection, schedule: Q01DX010 (ip), vehicle: saline",109 % of control
same,T/C,"dose: 0.25 mg/kg/injection, schedule: Q01DX010 (ip), vehicle: saline",118 % of control
same,T/C,"dose: 1.0 mg/kg/injection, schedule: Q01DX010 (ip), vehicle: saline",155 % of control
same,T/C,"dose: 2.0 mg/kg/injection, schedule: Q01DX010 (ip), vehicle: saline",180 % of control
CN1CC2CC(C1)c1cccc(=O)n1C2 (stereo not drawn),T/C,"dose: 5.0 mg/kg/injection, schedule: Q01DX010 (ip), vehicle: saline",86 % of control
same,T/C,"dose: 10.0 mg/kg/injection, schedule: Q01DX010 (ip), vehicle: saline",109 % of control
same,T/C,"dose: 20.0 mg/kg/injection, schedule: Q01DX010 (ip), vehicle: saline",104 % of control
same,T/C,"dose: 40.0 mg/kg/injection, schedule: Q01DX010 (ip), vehicle: saline",95 % of control
O=C(Nc1ccccc1)Oc1cccc(/C=N/Sc2ccccc2)c1,T/C,[6],107 % of control
same,T/C,[7],100 % of control
same,T/C,[1],91 % of control
